Here are results for four compounds from patent US20150376196A1, “4-SUBSTITUTED PYRROLO- AND PYRAZOLO-DIAZEPINES” (BAYER PHARMA AKTIENGESELLSCHAFT, priority 2013, published 2015).

For one experiment, the system named is MOLP-8 cells. Kind of experiment: Cell proliferation assay (alamarBlue), MOLP-8. To be noted: Homo sapiens, Multiple myeloma, 120 hours, inhibition of cell proliferation. Type of experiment: cell-based. On the procedure: (§1) In accordance with the invention, the ability of the substances to inhibit cell proliferation was determined Cell viability was determined by means of the alamarBlue® reagent (Invitrogen) in a Victor X3 Multilabel Reader (Perkin Elmer). The excitation wavelength was 530 nm and the emission wavelength […].
The MOLP-8 cells (DSMZ, ACC 569) were sown at a concentration of 4000 cells/well in 100 μl of growth medium (RPMI1640, 20% FCS) on 96-well microtitre plates.
(§2) The MDA-MB-231 cells (DSMZ, ACC 732) were sown at a concentration of 4000 cells/well in 100 μl of growth medium (DMEM/Ham's F12 medium, 10% FCS) on 96-well microtitre plates. After overnight incubation at 37° C., the fluorescence values (CI values) were determined. Then the plates were treated with various substance dilutions (1E-5 M, 3E-6 M, 1E-6 M, 3E-7 M, 1E-7 M, 3E-8 M, 1E-8 M) and incubated at 37° C. for 72 (MV-4-11, LOX-IMVI cells), 96 (MOLM-13, B16F10, […] cells), 120 (MOLP-8, KMS-12-PE cells) or 168 (LAPC-4 cells) hours. Subsequently, the fluorescence values were determined (CO values). For the data analysis, the CI values were subtracted from the CO values and the results were compared between cells which had been treated with various dilutions of the substance or only with buffer solution. The ICso values (substance concentration needed for 50% inhibition of cell proliferation) were calculated therefrom.
(§3) The substances were tested in the cell lines in Table 1, which represent the indications specified by way of example: […]
In general terms: Resazurin is reduced to fluorescent resorufin, in cell work by metabolically active cells.

A further experiment deals with B16F10 cells. Kind of experiment: Cell proliferation assay (alamarBlue), B16F10. It is filed as cell-based. To be noted: Mus musculus, B16-F10, Melanoma (BRAF wild-type), 96 hours, inhibition of cell proliferation. Here is the method:
as §1
The B16F10 cells (ATCC, CRL-6475) were sown at a concentration of 300-500 cells/well in 100 μl of growth medium (DMEM with phenol red, 10% FCS) on 96-well microtitre plates.
as §2, §3

The test system of another experiment is MDA-MB-231 cells. The experiment in a line: Cell proliferation assay (alamarBlue), MDA-MB-231. As to conditions: Homo sapiens, Breast, 96 hours, inhibition of cell proliferation. Type of experiment: cell-based. On the procedure: as §1, §2, §3
Another experiment addresses T1, BRD4 (BD1) (Homo sapiens, UniProt O60885).
T1 construct: amino acids 67-152, longer constructs also being possible, preferably amino acids 44-168; made in house; host or cells: E. coli
The experiment in a line: Binding assay BRD4/acetylated peptide H4 (TR-FRET protein-protein interaction assay). From the text:
To assess the BRD4 binding strength of the substances described in this application, the ability thereof to inhibit the interaction between BRD4 (BD1) and acetylated histone H4 in a dose-dependent manner was quantified.
For this purpose, a time-resolved fluorescence resonance energy transfer (TR-FRET) assay was used, which measures the binding between N-terminally His6-tagged BRD4 (BD1) (amino acids 67-152, longer constructs also being possible, preferably amino acids 44-168) and a synthetic acetylated histone H4 (Ac-H4) peptide with sequence GRGK(Ac)GGK(Ac)GLGK(Ac)GGAK(Ac)RHGSGSK-biotin. The recombinant BRD4 protein produced in-house according to Filippakopoulos et al., Nature, 2010, 468:1119-1123 was expressed in E. coli and purified by means of (Ni-NTA) affinity and (Sephadex G-75) size exclusion chromatography. The Ac-H4 peptide can be purchased, for example, from Biosyntan (Berlin, Germany).
In the assay, typically 11 different concentrations of each substance (0.1 nM, 0.33 nM, 1.1 nM, 3.8 nM, 13 nM, 44 nM, 0.15 μM, 0.51 μM, 1.7 μM, 5.9 μM and 20 μM) were analysed as duplicates on the same microtitre plate. For this purpose, 100-fold concentrated solutions in DMSO were prepared by serial dilutions (1:3.4) of a 2 mM stock solution into a clear, 384-well microtitre plate (Greiner Bio-One, Frickenhausen, Germany). From this, 50 nl were transferred into a black test plate (Greiner Bio-One, Frickenhausen, Germany). The test was started by the addition of 2 μl of a 2.5-fold concentrated BRD4 solution (final concentration typically 10 nM in the 5 μl of reaction volume) in aqueous assay buffer [50 mM HEPES pH 7.5, 50 mM sodium chloride (NaCl), 0.25 mM CHAPS and 0.05% serum albumin (BSA)] to the substances in the test plate. This was followed by a 10-minute incubation step at 22° C. for the pre-equilibration of putative complexes between BRD4 and the substances.
The mixture was then incubated in the dark at 22° C. for one hour and then at 4° C. for at least 3 hours and for no longer than overnight. The formation of BRD4/Ac-H4 complexes was determined by the measurement of the resonance energy transfer from the streptavidin-Eu cryptate to the anti-6His-XL665 antibody present in the reaction. For this purpose, the fluorescence emission was measured at 620 nm and 665 nm after excitation at 330-350 nm in a TR-FRET measuring instrument, for example a Rubystar or Pherastar (both from BMG Lab Technologies, Offenburg, Germany) or a Viewlux (Perkin-Elmer). The ratio of the emissions at 665 nm and at 622 nm was taken as an indicator of the amount of BRD4/Ac-H4 complexes formed.
The data (ratios) obtained were normalized, with 0% inhibition corresponding to the mean from the measurements for a set of controls (typically 32 data points) in which all the reagents were present. In these, in place of test substances, 50 nl of DMSO (100%) were used Inhibition of 100% corresponded to the mean from the measurements for a set of controls (typically 32 data points) in which all the reagents except BRD4 were present. The IC50 was determined by regression analysis based on a 4-parameter equation (minimum, maximum, IC50, Hill; Y=max+(min−max)/(1+(X/IC50)^Hill)).
Background: TR-FRET usually uses a lanthanide donor and a delayed reading to cut background.

Another experiment has as its system MOLM-13 cells. The experiment in a line: Cell proliferation assay (alamarBlue), MOLM-13. As to conditions: Homo sapiens, Leukaemia, 96 hours, inhibition of cell proliferation. Type of experiment: cell-based. On the procedure:
as §1
The MOLM-13 cells (DSMZ, ACC 554) were sown at a concentration of 4000 cells/well in 100 μl of growth medium (RPMI1640, 10% FCS) on 96-well microtitre plates.
as §2, §3

A further experiment relates to LAPC-4 cells. The experiment in a line: Cell proliferation assay (alamarBlue), LAPC-4. Type of experiment: cell-based. To be noted: Homo sapiens, LAPC4, Prostate, 1 nM methyltrienolone, 168 hours, inhibition of cell proliferation. On the procedure:
as §1
The LAPC-4 cells (ATCC, PTA-1441TM) were sown at a concentration of 4000 cells/well in 100 μl of growth medium (RPMI1640, 2 mM L-glutamine, 10% cFCS) on 96-well microtitre plates. One day later, the LAPC-4 cells were treated with 1 nM methyltrienolone and various substance dilutions.
as §2, §3

Setting [1] is: BRD4 (BD1) / acetylated histone H4 peptide, TR-FRET, read-out: IC50 (BRD4).

Where two headings read alike, the source gives them in different places.

Broadly, the IC50 is the point on the concentration scale where inhibition reaches its midpoint. In the case of `COC(=O)C[C@@H]1N=C(c2ccc(Cl)cc2)c2c(cn(C)c2C)-n2c(C)nnc21` [Example 1], the IC50 in the experiment with MOLP-8 cells worked out at 50 nM; in the experiment with B16F10 cells, 80 nM; with MDA-MB-231 cells, 90 nM; at BRD4 (BD1), 10 nM; in the experiment on MOLM-13 cells, 130 nM; in the experiment on LAPC-4 cells it was 50 nM.
`Cc1c2c(cn1C)-n1c(C)nnc1[C@H](CC(=O)N1CCS(=O)(=O)CC1)N=C2c1ccc(Cl)cc1` [Example 8, (−)-2-[(4S)-6-(4-Chlorophenyl)-1,7,8-trimethyl-4,8-dihydropyrrolo[3,4f][1,2,4]triazolo[4,3-a][1,4]diazepin-4-yl]-1-(1,1-dioxidothiomorpholino)ethan-1-one]: the IC50 with MOLP-8 cells worked out at 440 nM; in the experiment with B16F10 cells, 670 nM; at BRD4 (BD1) (setting [1]) it was 100 nM; with MOLM-13 cells, 560 nM; with LAPC-4 cells, 360 nM.
For the compound `COC(=O)C[C@@H]1N=C(c2ccccc2)c2c(cn(C)c2C)-n2c(C)nnc21` [Example 2, 2-(4S)-(1,7,8-Trimethyl-6-phenyl-4,8-dihydropyrrolo[3,4f][1,2,4]triazolo[4,3-a][1,4]diazepin-4-yl)acetic acid methyl ester], the concentration for half-maximal inhibition (IC50) with B16F10 cells was 80 nM; in the experiment on MDA-MB-231 cells, 90 nM; on BRD4 (BD1) it was 10 nM; with MOLM-13 cells, 330 nM; in the experiment on LAPC-4 cells it was 30 nM.
`Cc1c2c(cn1C)-n1c(C)nnc1[C@H](CC(=O)OC(C)(C)C)N=C2c1ccc(Cl)cc1` [Example 3]: the half-inhibitory concentration (IC50) was 190 nM with MOLP-8 cells; 190 nM in the experiment on B16F10 cells; 30 nM on BRD4 (BD1) (setting [1]); 210 nM with MOLM-13 cells; 100 nM in the experiment on LAPC-4 cells.
